From the CheMixHub ionic liquid set

Assay: xn = mol fraction of the nth substance listed
Conditions: 100 kPa

C[N+](C)(C)Cc1ccccc1.[Cl-] + O=C([O-])c1ccccc1.[Na+] + O
viscosity [mPa·s]
Conditions	298.15 K	303.15 K	308.15 K	313.15 K	318.15 K
x1 = 9.698e-05, x2 = 0.001545	0.924	0.835	0.753	0.654	0.566
x1 = 9.701e-05, x2 = 0.00127	0.919	0.829	0.748	0.65	0.562
x1 = 9.703e-05, x2 = 0.0009982	0.913	0.823	0.742	0.645	0.558
x1 = 9.706e-05, x2 = 0.0007245	0.906	0.817	0.737	0.64	0.552
x1 = 9.709e-05, x2 = 0.0004525	0.901	0.812	0.731	0.635	0.548
x1 = 9.711e-05, x2 = 0.0001803	0.896	0.807	0.726	0.629	0.544
x1 = 0.0002915, x2 = 0.001548	0.927	0.84	0.758	0.652	0.562
x1 = 0.0002916, x2 = 0.001	0.915	0.827	0.747	0.64	0.554
x1 = 0.0002916, x2 = 0.001272	0.92	0.833	0.752	0.647	0.559
x1 = 0.0002917, x2 = 0.0007258	0.909	0.821	0.74	0.637	0.55
x1 = 0.0002918, x2 = 0.0004533	0.902	0.816	0.735	0.631	0.544
x1 = 0.0002919, x2 = 0.0001807	0.898	0.812	0.731	0.626	0.54
x1 = 0.0004867, x2 = 0.001551	0.932	0.843	0.76	0.665	0.577
x1 = 0.0004868, x2 = 0.001275	0.926	0.837	0.754	0.66	0.573
x1 = 0.0004869, x2 = 0.001002	0.919	0.831	0.748	0.655	0.569
x1 = 0.0004871, x2 = 0.0007272	0.913	0.826	0.743	0.649	0.563
x1 = 0.0004872, x2 = 0.0004542	0.908	0.82	0.737	0.645	0.559
x1 = 0.0004873, x2 = 0.000181	0.903	0.815	0.733	0.64	0.555
